{"source": "patent US11225503B2", "about": "“Crystobactamides” (HELMHOLTZ-ZENTRUM FÜR INFEKTIONSFORSCHUNG GMBH, priority 2013, dated 2022)", "test_system": "Cystobacter velatus MCy8071", "assay": "Antibiotic resistance of the producer strain", "assay_type": "cell-based", "details": "final concentration of all antibiotics 50 μg ml^−1", "description": "MCy8071 is resistant against the following antibiotics: ampicillin, gentamycin, hygromycin, polymycin, bacitracin, spectinomycin, neomycin, and fusidinic acid. Weak growth is possible with cephalosporin and kasugamycin and no growth is possible with thiostrepton, trimethoprin, kanamycin, and oxytetracycline (final concentration of all antibiotics was adjusted to 50 μg ml^−1)."}
{"compound": "C[C@H]1O[C@H](O[C@H]2[C@H](O)[C@@H](O)[C@@H](O)[C@H](O)[C@@H]2O)[C@@H](N)C[C@@H]1NC(=N)C(=O)O", "note": "[kasugamycin]", "values": [{"measurement": "growth of strain MCy8071 in presence of the antibiotic", "value": "Weak growth"}]}
{"compound": "CN[C@@H]1[C@H](O)[C@H](NC)[C@H]2O[C@@]3(O)C(=O)C[C@@H](C)O[C@H]3O[C@@H]2[C@H]1O", "note": "[spectinomycin]", "values": [{"measurement": "growth of strain MCy8071 in presence of the antibiotic", "value": "resistant"}]}
{"compound": "C=C(NC(=O)C(=C)NC(=O)c1csc(C2=N[C@@H]3c4csc(n4)[C@H]4NC(=O)c5csc(n5)[C@H]([C@](C)(O)[C@@H](C)O)NC(=O)[C@H]5CSC(=N5)/C(=C/C)NC(=O)[C@H]([C@@H](C)O)NC(=O)c5csc(n5)[C@]3(CC2)NC(=O)[C@H](C)NC(=O)C(=C)NC(=O)[C@H](C)NC(=O)[C@H]([C@@H](C)CC)N[C@@H]2C=Cc3c([C@H](C)O)cc(nc3[C@H]2O)C(=O)O[C@@H]4C)n1)C(N)=O", "note": "[thiostrepton]", "values": [{"measurement": "growth of strain MCy8071 in presence of the antibiotic", "value": "no growth"}]}
{"compound": "COc1cc(Cc2cnc(N)nc2N)cc(OC)c1OC", "note": "[trimethoprin]", "values": [{"measurement": "growth of strain MCy8071 in presence of the antibiotic", "value": "no growth"}]}
{"compound": "gentamycin", "values": [{"measurement": "growth of strain MCy8071 in presence of the antibiotic", "value": "resistant"}]}
{"compound": "neomycin", "values": [{"measurement": "growth of strain MCy8071 in presence of the antibiotic", "value": "resistant"}]}
{"compound": "polymycin", "values": [{"measurement": "growth of strain MCy8071 in presence of the antibiotic", "value": "resistant"}]}
